From paper PMC8635029 (Frontiers in Pharmacology, 2021) come the findings set out here.

What all share (assay): In vitro SafetyScreen panel
Common to all, as to type: binding

Data set [1] deals with T1, Adenosine A1 (Homo sapiens, UniProt P30542).
T1 construct: Eurofins Discovery (contract panel) PP223
The method, then:
(§1) In vitro off-target pharmacological activities of HSK21542 were evaluated on 86 targets using a SafetyScreen panel (Item PP223, target selectivity panel) and the corresponding methods could be found at https://www.eurofinsdiscoveryservices.com/.

The target of data set [2] is T2, Serotonin (5-Hydroxytryptamine) 5-HT1B (Homo sapiens, UniProt P28222).
T2 construct: Eurofins Discovery (outsourced panel) PP223
The method, then:
as §1

Data set [3] deals with T3, Chemokine CXCR2 (IL-8RB) (Homo sapiens, UniProt P25025).
T3 construct: Eurofins Discovery (contract panel) PP223
T3 sequence (P25025 whole entry): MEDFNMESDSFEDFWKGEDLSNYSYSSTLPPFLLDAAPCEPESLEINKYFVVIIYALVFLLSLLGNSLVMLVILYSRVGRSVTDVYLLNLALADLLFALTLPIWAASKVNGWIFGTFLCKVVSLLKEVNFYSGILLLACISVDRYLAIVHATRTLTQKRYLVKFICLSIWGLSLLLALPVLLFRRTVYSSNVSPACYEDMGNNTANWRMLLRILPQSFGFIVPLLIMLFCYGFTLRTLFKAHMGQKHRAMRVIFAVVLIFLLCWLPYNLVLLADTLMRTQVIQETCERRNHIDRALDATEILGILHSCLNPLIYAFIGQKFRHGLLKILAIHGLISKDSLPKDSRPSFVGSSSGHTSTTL
How it is done:
as §1

In data set [4] the target is T4, Opiate δ1 (OP1, DOP) (Homo sapiens, UniProt P41143).
T4 construct: Eurofins Discovery (outsourced panel) PP223
T4 sequence (P41143 whole entry): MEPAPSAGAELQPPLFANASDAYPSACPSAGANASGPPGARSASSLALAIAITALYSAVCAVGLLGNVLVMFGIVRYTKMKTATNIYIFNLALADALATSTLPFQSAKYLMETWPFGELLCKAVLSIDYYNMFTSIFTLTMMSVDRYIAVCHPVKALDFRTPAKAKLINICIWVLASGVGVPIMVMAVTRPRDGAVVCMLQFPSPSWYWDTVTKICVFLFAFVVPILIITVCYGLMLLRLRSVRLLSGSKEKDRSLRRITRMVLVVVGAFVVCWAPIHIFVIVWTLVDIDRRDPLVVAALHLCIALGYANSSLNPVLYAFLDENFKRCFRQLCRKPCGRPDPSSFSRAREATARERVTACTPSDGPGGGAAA
The method, then:
as §1

The target in data set [5] is T5, PPARγ (Homo sapiens, UniProt P37231).
T5 construct: Eurofins Discovery (outsourced panel) PP223
T5 sequence (P37231 whole entry): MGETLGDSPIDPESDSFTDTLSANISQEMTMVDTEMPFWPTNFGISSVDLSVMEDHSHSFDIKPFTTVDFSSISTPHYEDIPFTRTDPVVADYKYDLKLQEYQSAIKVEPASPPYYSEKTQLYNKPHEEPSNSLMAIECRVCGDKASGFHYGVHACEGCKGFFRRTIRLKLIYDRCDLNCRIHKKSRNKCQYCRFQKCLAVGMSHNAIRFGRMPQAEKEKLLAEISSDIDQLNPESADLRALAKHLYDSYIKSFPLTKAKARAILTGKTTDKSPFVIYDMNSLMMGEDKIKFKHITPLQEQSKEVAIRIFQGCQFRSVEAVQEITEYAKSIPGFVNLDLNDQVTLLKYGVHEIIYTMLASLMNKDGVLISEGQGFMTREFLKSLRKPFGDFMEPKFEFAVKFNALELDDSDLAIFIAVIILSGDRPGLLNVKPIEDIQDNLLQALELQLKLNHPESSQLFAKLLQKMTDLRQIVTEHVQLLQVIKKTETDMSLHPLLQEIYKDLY
How it is done: as §1

The target of data set [6] is T6, Cannabinoid CB1 (Homo sapiens, UniProt P21554).
T6 construct: Eurofins Discovery (contract panel) PP223
How it is done:
as §1

The target of data set [7] is T7, Cholecystokinin CCK2 (CCKB) (Homo sapiens, UniProt P32239).
T7 construct: Eurofins Discovery (contract panel) PP223
T7 sequence (P32239 whole entry): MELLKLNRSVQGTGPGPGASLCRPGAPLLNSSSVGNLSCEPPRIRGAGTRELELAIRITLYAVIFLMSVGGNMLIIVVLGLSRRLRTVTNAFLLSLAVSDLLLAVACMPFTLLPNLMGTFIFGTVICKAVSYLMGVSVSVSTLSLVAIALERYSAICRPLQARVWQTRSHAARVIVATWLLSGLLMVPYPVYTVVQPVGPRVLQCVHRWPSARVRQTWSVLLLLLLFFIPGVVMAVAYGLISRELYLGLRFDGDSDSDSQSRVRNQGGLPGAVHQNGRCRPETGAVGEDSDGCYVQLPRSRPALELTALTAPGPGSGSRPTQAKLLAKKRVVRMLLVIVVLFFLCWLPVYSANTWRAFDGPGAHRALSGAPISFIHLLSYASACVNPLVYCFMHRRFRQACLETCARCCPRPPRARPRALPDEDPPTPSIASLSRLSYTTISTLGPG
How it is done:
as §1

Data set [8] has as its target T8, Adrenergic α2A (Homo sapiens, UniProt P08913).
T8 construct: Eurofins Discovery (contract panel) PP223
How it is done:
as §1

In data set [9] the target is T9, Adrenergic β1 (Homo sapiens, UniProt P08588).
T9 construct: Eurofins Discovery (contract panel) PP223
How it is done: as §1

Data set [10] concerns the target T10, Potassium Channel hERG (Homo sapiens, UniProt Q12809).
T10 construct: Eurofins Discovery (outsourced panel) PP223
The method, then: as §1

Data set [11] deals with T11, Transporter, Dopamine (DAT) (Homo sapiens, UniProt Q01959).
T11 construct: Eurofins Discovery (contract panel) PP223
T11 sequence (Q01959 whole entry): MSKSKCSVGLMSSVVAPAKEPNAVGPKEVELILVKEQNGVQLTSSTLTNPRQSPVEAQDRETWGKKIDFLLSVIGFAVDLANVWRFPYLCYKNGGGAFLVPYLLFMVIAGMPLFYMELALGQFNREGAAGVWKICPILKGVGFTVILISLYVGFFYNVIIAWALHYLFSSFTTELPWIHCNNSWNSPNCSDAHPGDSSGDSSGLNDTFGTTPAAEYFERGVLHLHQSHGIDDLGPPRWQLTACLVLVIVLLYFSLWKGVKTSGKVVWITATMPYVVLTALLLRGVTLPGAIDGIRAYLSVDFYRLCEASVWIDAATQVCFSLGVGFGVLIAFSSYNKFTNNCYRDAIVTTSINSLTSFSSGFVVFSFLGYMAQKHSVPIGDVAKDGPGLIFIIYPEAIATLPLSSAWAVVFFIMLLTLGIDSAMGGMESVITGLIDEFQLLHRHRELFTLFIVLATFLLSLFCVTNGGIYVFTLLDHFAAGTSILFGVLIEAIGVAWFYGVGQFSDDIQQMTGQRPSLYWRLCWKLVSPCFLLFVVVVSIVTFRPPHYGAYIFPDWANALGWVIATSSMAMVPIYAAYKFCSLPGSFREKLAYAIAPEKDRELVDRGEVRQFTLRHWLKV
How it is done:
as §1

The target of data set [12] is T12, Vasopressin V1A (Homo sapiens, UniProt P37288).
T12 construct: Eurofins Discovery (contract panel) PP223
T12 sequence (P37288 whole entry): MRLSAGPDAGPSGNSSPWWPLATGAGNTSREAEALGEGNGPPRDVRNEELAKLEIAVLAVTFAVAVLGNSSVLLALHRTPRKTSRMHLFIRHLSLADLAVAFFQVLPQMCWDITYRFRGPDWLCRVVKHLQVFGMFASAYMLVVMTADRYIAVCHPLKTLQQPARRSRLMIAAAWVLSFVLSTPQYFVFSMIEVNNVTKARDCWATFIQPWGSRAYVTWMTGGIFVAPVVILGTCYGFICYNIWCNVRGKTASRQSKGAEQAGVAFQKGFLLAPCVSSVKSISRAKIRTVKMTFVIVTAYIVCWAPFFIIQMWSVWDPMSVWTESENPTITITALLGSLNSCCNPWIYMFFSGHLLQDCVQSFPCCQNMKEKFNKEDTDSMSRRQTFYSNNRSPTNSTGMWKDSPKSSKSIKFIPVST
The method, then:
as §1

In data set [13] the target is T13, Muscarinic M2 (Homo sapiens, UniProt P08172).
T13 construct: Eurofins Discovery (outsourced panel) PP223
How it is done: as §1

For data set [14], the target named is T14, Serotonin (5-Hydroxytryptamine) 5-HT2A (Homo sapiens, UniProt P28223).
T14 construct: Eurofins Discovery (outsourced panel) PP223
T14 sequence (P28223 whole entry): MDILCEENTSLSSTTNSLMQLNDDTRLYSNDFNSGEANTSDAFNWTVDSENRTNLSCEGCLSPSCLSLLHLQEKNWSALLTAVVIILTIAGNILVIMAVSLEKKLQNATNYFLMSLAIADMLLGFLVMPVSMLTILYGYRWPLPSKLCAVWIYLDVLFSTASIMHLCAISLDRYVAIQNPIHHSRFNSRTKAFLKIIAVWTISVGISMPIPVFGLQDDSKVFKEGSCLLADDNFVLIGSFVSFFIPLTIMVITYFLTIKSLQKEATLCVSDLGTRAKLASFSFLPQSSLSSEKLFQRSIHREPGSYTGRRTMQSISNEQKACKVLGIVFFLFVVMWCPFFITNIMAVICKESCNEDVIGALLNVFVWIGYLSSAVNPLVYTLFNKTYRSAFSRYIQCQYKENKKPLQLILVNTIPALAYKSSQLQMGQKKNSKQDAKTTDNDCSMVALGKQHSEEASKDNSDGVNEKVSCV
The method, then: as §1

For data set [15], the target named is T15, Neuropeptide YY1 (Homo sapiens, UniProt P25929).
T15 construct: Eurofins Discovery (outsourced panel) PP223
T15 sequence (P25929 whole entry): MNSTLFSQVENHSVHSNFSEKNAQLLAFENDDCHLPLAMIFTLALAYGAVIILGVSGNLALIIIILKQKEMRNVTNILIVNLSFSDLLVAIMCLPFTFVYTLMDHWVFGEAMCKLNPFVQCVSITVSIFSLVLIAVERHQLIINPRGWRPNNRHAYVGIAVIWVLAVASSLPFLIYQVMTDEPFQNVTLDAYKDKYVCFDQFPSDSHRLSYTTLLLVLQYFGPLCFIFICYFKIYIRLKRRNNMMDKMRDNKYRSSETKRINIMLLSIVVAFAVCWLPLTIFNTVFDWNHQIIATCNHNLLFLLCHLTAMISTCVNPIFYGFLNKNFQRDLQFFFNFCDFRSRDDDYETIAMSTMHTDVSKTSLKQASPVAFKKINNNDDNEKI
How it is done: as §1

Data set [16] concerns the target T16, Adrenergic α2B (Homo sapiens, UniProt P18089).
T16 construct: Eurofins Discovery (contract panel) PP223
How it is done:
as §1

T8 sequence (P08913 whole entry): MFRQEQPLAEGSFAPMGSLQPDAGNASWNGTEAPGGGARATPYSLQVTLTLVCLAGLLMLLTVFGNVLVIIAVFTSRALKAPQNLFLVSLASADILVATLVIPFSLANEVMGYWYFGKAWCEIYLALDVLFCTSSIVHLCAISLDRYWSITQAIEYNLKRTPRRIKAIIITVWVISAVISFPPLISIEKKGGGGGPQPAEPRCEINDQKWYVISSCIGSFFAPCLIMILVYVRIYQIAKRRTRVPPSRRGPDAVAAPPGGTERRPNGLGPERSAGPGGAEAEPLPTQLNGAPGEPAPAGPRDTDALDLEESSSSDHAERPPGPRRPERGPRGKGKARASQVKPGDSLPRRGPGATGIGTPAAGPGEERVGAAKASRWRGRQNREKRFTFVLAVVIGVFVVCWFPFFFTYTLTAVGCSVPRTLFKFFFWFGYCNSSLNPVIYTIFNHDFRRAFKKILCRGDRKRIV
T1 sequence (P30542 whole entry): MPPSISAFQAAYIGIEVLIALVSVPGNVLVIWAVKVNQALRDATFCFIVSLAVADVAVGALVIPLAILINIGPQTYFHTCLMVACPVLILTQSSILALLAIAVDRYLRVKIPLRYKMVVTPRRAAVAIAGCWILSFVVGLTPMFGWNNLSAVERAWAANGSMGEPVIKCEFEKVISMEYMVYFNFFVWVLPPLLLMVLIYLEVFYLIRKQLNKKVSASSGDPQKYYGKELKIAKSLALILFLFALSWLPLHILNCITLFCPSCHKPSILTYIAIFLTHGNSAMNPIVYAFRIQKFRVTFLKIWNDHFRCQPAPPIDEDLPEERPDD
T16 sequence (P18089 whole entry): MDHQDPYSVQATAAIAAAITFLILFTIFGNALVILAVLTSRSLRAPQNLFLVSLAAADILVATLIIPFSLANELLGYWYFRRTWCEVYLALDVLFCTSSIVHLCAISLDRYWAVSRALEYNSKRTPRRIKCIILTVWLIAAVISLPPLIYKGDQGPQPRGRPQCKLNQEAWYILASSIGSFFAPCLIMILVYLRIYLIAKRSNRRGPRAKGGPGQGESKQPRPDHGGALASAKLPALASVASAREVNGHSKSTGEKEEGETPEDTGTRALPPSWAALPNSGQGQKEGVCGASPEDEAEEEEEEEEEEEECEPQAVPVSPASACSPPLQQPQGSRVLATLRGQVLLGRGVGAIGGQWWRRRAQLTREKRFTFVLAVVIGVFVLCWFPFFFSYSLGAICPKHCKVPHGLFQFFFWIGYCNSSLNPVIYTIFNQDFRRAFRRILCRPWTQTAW

On to `CC(=O)N1CC2(CCN(C(=O)[C@@H](CCCCN)NC(=O)[C@@H](CC(C)C)NC(=O)[C@@H](Cc3ccccc3)NC(=O)[C@H](N)Cc3ccccc3)CC2)C1` [HSK21542, 7-(D-phenylalanyl-D-phenylalanyl-D-leucyl-D-lysyl)-2-acetyl-2,7-diazaspiro (3.5)nonane], for which the inhibition (in general, the relative decrease from the control value, in per cent) at 10 µM in data set [1] was found to be 0%; in data set [2] it was 1%; in [3] it was 4%; in [4] it was 5%; in data set [5] it was 3%; in [6], 47%. Besides, the inhibition at 10 µM in data set [7] was -12%; in [8], 7%; in [9] it was 11%; in [10] it was 1%; in data set [11], 2%; in data set [12] it was -24%. Besides, the inhibition at 10 µM is 1% in data set [13], 0% in [14], -8% in [15] and -6% in [16].
